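Results reflect a 48-hour exposure of cells in 96-well plates to compound at five concentrations. TGI marks complete inhibition of growth.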
System: OVCAR-8 ovarian
Experiment: NCI-60 cell line screen, 48 h

`CC(C)=C[C@H]1CCC2(OCCO2)[C@]1(C)CO` and `CC(C)=C[C@H]1CCC2(OCCO2)[C@]1(C)COCc1ccccc1` cannot be ordered by TGI: over 100 µM for the first, over 100 µM for the second.

Compared with `O=C(N/N=C\C=C\c1ccc([N+](=O)[O-])o1)C(=O)N/N=C\C=C\c1ccc([N+](=O)[O-])o1`, `NNC(=S)N/N=C(/C(=O)Nc1ccc(Cl)c(Cl)c1)C(C1OC(=O)c2ccccc21)[N+](=O)[O-]` (stereo unspecified) is higher in TGI: 59.1 µM for the first, over 100 µM for the second.

Going from `CSc1nnc(SC)nn1` to `c1ccc(CNc2nncc3[nH]cnc23)cc1`, the TGI rises from 35.9 µM to over 100 µM.

`N#CCCC(CCC#N)(CCC#N)NO` and `CCOC(=O)c1cn2c(n1)sc1cc(Cl)ccc12` cannot be ordered by TGI: over 100 µM for the first, over 100 µM for the second.

Compared with `COC(=O)c1cc2c(cc1Cl)Sc1nnc(Nc3ccc(C)cc3)n1S2(=O)=O`, `CO/C=C(/C(=O)OC)c1ccccc1COc1cccc(C(F)(F)F)c1` is higher in TGI: 40.4 µM for the first, over 100 µM for the second.

`CCN1CCN(c2nc3ccccc3c3c2CCOc2ccccc2-3)CC1` and `N#Cc1c(-c2ccccc2)[nH]c2ccc(Cl)cc2c1=O` cannot be ordered by TGI: over 75.5 µM for the first, over 100 µM for the second.

`O=C(NCP(=O)(c1ccccc1)c1ccccc1)OCc1ccccc1` and `CCc1cc(Cc2cc(CC)c(NC(=O)C(=O)CC(=O)c3sc(-c4cccnc4)nc3C)c(CC)c2)cc(CC)c1NC(=O)C(=O)CC(=O)c1sc(-c2cccnc2)nc1C` cannot be ordered by TGI: over 100 µM for the first, over 100 µM for the second.

`O=c1cc(N2CCCC2)[nH]c(=O)n1-c1cccc(Cl)c1` and `C1=Cc2cc3c(c4nccc(c24)N1)OCO3` cannot be ordered by TGI: over 100 µM for the first, over 46.8 µM for the second.

`O=C1NC(=S)NC(=O)C1C(c1ccc(O)cc1)C1C(=O)NC(=S)NC1=O` and `CC(=O)[C@@H](C)C(=O)N1C(=O)OC[C@@]12[C@@H]1CC[C@@H](C1)C2(C)C` cannot be ordered by TGI: over 100 µM for the first, over 100 µM for the second.

Work on `C/C(=N/NC(N)=S)c1ccc[nH]1` yielded a TGI of over 100 µM.

System: T-47D breast
Experiment: NCI-60 cell line screen, 48 h

`CC(C)=C[C@H]1CCC2(OCCO2)[C@]1(C)CO` and `CC(C)=C[C@H]1CCC2(OCCO2)[C@]1(C)COCc1ccccc1` cannot be ordered by TGI: over 100 µM for the first, over 100 µM for the second.

`O=C(N/N=C\C=C\c1ccc([N+](=O)[O-])o1)C(=O)N/N=C\C=C\c1ccc([N+](=O)[O-])o1` and `NNC(=S)N/N=C(/C(=O)Nc1ccc(Cl)c(Cl)c1)C(C1OC(=O)c2ccccc21)[N+](=O)[O-]` (stereo unspecified) cannot be ordered by TGI: over 100 µM for the first, over 100 µM for the second.

`CSc1nnc(SC)nn1` and `c1ccc(CNc2nncc3[nH]cnc23)cc1` cannot be ordered by TGI: over 100 µM for the first, over 100 µM for the second.

`N#CCCC(CCC#N)(CCC#N)NO` and `CCOC(=O)c1cn2c(n1)sc1cc(Cl)ccc12` cannot be ordered by TGI: over 100 µM for the first, over 100 µM for the second.

Compared with `COC(=O)c1cc2c(cc1Cl)Sc1nnc(Nc3ccc(C)cc3)n1S2(=O)=O`, `CO/C=C(/C(=O)OC)c1ccccc1COc1cccc(C(F)(F)F)c1` is 22-fold higher in TGI: 4.12 µM for the first, 91.4 µM for the second.

`CCN1CCN(c2nc3ccccc3c3c2CCOc2ccccc2-3)CC1` and `N#Cc1c(-c2ccccc2)[nH]c2ccc(Cl)cc2c1=O` cannot be ordered by TGI: over 69.8 µM for the first, over 100 µM for the second.

`O=C(NCP(=O)(c1ccccc1)c1ccccc1)OCc1ccccc1` and `CCc1cc(Cc2cc(CC)c(NC(=O)C(=O)CC(=O)c3sc(-c4cccnc4)nc3C)c(CC)c2)cc(CC)c1NC(=O)C(=O)CC(=O)c1sc(-c2cccnc2)nc1C` cannot be ordered by TGI: over 100 µM for the first, over 100 µM for the second.

Compared with `O=c1cc(N2CCCC2)[nH]c(=O)n1-c1cccc(Cl)c1`, `C1=Cc2cc3c(c4nccc(c24)N1)OCO3` is lower in TGI: over 100 µM for the first, 34.8 µM for the second.

`O=C1NC(=S)NC(=O)C1C(c1ccc(O)cc1)C1C(=O)NC(=S)NC1=O` and `CC(=O)[C@@H](C)C(=O)N1C(=O)OC[C@@]12[C@@H]1CC[C@@H](C1)C2(C)C` cannot be ordered by TGI: over 100 µM for the first, over 100 µM for the second.

In the case of `C/C(=N/NC(N)=S)c1ccc[nH]1`, the TGI was over 100 µM.

System: SK-MEL-5 melanoma
Experiment: NCI-60 cell line screen, 48 h

Going from `CC(C)=C[C@H]1CCC2(OCCO2)[C@]1(C)CO` to `CC(C)=C[C@H]1CCC2(OCCO2)[C@]1(C)COCc1ccccc1`, the TGI falls from over 100 µM to 32 µM.

`O=C(N/N=C\C=C\c1ccc([N+](=O)[O-])o1)C(=O)N/N=C\C=C\c1ccc([N+](=O)[O-])o1` and `NNC(=S)N/N=C(/C(=O)Nc1ccc(Cl)c(Cl)c1)C(C1OC(=O)c2ccccc21)[N+](=O)[O-]` (stereo unspecified) cannot be ordered by TGI: over 100 µM for the first, over 100 µM for the second.

Going from `CSc1nnc(SC)nn1` to `c1ccc(CNc2nncc3[nH]cnc23)cc1`, the TGI rises from 29.6 µM to over 100 µM.

`N#CCCC(CCC#N)(CCC#N)NO` and `CCOC(=O)c1cn2c(n1)sc1cc(Cl)ccc12` cannot be ordered by TGI: over 100 µM for the first, over 100 µM for the second.

Compared with `COC(=O)c1cc2c(cc1Cl)Sc1nnc(Nc3ccc(C)cc3)n1S2(=O)=O`, `CO/C=C(/C(=O)OC)c1ccccc1COc1cccc(C(F)(F)F)c1` is 1.9-fold lower in TGI: 27.6 µM for the first, 14.5 µM for the second.

Going from `CCN1CCN(c2nc3ccccc3c3c2CCOc2ccccc2-3)CC1` to `N#Cc1c(-c2ccccc2)[nH]c2ccc(Cl)cc2c1=O`, the TGI rises from 36.7 µM to over 100 µM.

`O=C(NCP(=O)(c1ccccc1)c1ccccc1)OCc1ccccc1` and `CCc1cc(Cc2cc(CC)c(NC(=O)C(=O)CC(=O)c3sc(-c4cccnc4)nc3C)c(CC)c2)cc(CC)c1NC(=O)C(=O)CC(=O)c1sc(-c2cccnc2)nc1C` cannot be ordered by TGI: over 100 µM for the first, over 100 µM for the second.

`O=C1NC(=S)NC(=O)C1C(c1ccc(O)cc1)C1C(=O)NC(=S)NC1=O` and `CC(=O)[C@@H](C)C(=O)N1C(=O)OC[C@@]12[C@@H]1CC[C@@H](C1)C2(C)C` cannot be ordered by TGI: over 100 µM for the first, over 100 µM for the second.

Work on `C/C(=N/NC(N)=S)c1ccc[nH]1` yielded a TGI of over 100 µM.

System: M14 melanoma
Experiment: NCI-60 cell line screen, 48 h

Compared with `CC(C)=C[C@H]1CCC2(OCCO2)[C@]1(C)CO`, `CC(C)=C[C@H]1CCC2(OCCO2)[C@]1(C)COCc1ccccc1` is lower in TGI: over 100 µM for the first, 99.4 µM for the second.

`O=C(N/N=C\C=C\c1ccc([N+](=O)[O-])o1)C(=O)N/N=C\C=C\c1ccc([N+](=O)[O-])o1` and `NNC(=S)N/N=C(/C(=O)Nc1ccc(Cl)c(Cl)c1)C(C1OC(=O)c2ccccc21)[N+](=O)[O-]` (stereo unspecified) cannot be ordered by TGI: over 100 µM for the first, over 100 µM for the second.

Compared with `CSc1nnc(SC)nn1`, `c1ccc(CNc2nncc3[nH]cnc23)cc1` is higher in TGI: 28.9 µM for the first, over 100 µM for the second.

`N#CCCC(CCC#N)(CCC#N)NO` and `CCOC(=O)c1cn2c(n1)sc1cc(Cl)ccc12` cannot be ordered by TGI: over 100 µM for the first, over 100 µM for the second.

First: COC(=O)c1cc2c(cc1Cl)Sc1nnc(Nc3ccc(C)cc3)n1S2(=O)=O
Second: CO/C=C(/C(=O)OC)c1ccccc1COc1cccc(C(F)(F)F)c1
The TGI of the first is lower: 27.6 µM for the first, over 100 µM for the second.

First: CCN1CCN(c2nc3ccccc3c3c2CCOc2ccccc2-3)CC1
Second: N#Cc1c(-c2ccccc2)[nH]c2ccc(Cl)cc2c1=O
The TGI of the first is lower: 38.4 µM for the first, over 100 µM for the second.

`O=C(NCP(=O)(c1ccccc1)c1ccccc1)OCc1ccccc1` and `CCc1cc(Cc2cc(CC)c(NC(=O)C(=O)CC(=O)c3sc(-c4cccnc4)nc3C)c(CC)c2)cc(CC)c1NC(=O)C(=O)CC(=O)c1sc(-c2cccnc2)nc1C` cannot be ordered by TGI: over 100 µM for the first, over 100 µM for the second.

First: O=c1cc(N2CCCC2)[nH]c(=O)n1-c1cccc(Cl)c1
Second: C1=Cc2cc3c(c4nccc(c24)N1)OCO3
The TGI of the first is higher: over 100 µM for the first, 54.5 µM for the second.

`O=C1NC(=S)NC(=O)C1C(c1ccc(O)cc1)C1C(=O)NC(=S)NC1=O` and `CC(=O)[C@@H](C)C(=O)N1C(=O)OC[C@@]12[C@@H]1CC[C@@H](C1)C2(C)C` cannot be ordered by TGI: over 100 µM for the first, over 100 µM for the second.

`C/C(=N/NC(N)=S)c1ccc[nH]1` gave a TGI of over 100 µM.

System: IGROV1 ovarian
Experiment: NCI-60 cell line screen, 48 h

`CC(C)=C[C@H]1CCC2(OCCO2)[C@]1(C)CO` and `CC(=O)[C@@H](C)C(=O)N1C(=O)OC[C@@]12[C@@H]1CC[C@@H](C1)C2(C)C` cannot be ordered by TGI: over 100 µM for the first, over 100 µM for the second.

`O=C(N/N=C\C=C\c1ccc([N+](=O)[O-])o1)C(=O)N/N=C\C=C\c1ccc([N+](=O)[O-])o1` and `NNC(=S)N/N=C(/C(=O)Nc1ccc(Cl)c(Cl)c1)C(C1OC(=O)c2ccccc21)[N+](=O)[O-]` (stereo unspecified) cannot be ordered by TGI: over 100 µM for the first, over 100 µM for the second.

Going from `CSc1nnc(SC)nn1` to `c1ccc(CNc2nncc3[nH]cnc23)cc1`, the TGI rises from 31 µM to over 100 µM.

`N#CCCC(CCC#N)(CCC#N)NO` and `CCOC(=O)c1cn2c(n1)sc1cc(Cl)ccc12` cannot be ordered by TGI: over 100 µM for the first, over 100 µM for the second.

Going from `COC(=O)c1cc2c(cc1Cl)Sc1nnc(Nc3ccc(C)cc3)n1S2(=O)=O` to `CO/C=C(/C(=O)OC)c1ccccc1COc1cccc(C(F)(F)F)c1`, the TGI rises from 7.75 µM to 47.3 µM (6.1-fold).

`CCN1CCN(c2nc3ccccc3c3c2CCOc2ccccc2-3)CC1` and `N#Cc1c(-c2ccccc2)[nH]c2ccc(Cl)cc2c1=O` cannot be ordered by TGI: over 58.3 µM for the first, over 100 µM for the second.

`O=C(NCP(=O)(c1ccccc1)c1ccccc1)OCc1ccccc1` and `CCc1cc(Cc2cc(CC)c(NC(=O)C(=O)CC(=O)c3sc(-c4cccnc4)nc3C)c(CC)c2)cc(CC)c1NC(=O)C(=O)CC(=O)c1sc(-c2cccnc2)nc1C` cannot be ordered by TGI: over 100 µM for the first, over 100 µM for the second.

`O=c1cc(N2CCCC2)[nH]c(=O)n1-c1cccc(Cl)c1` and `O=C1NC(=S)NC(=O)C1C(c1ccc(O)cc1)C1C(=O)NC(=S)NC1=O` cannot be ordered by TGI: over 100 µM for the first, over 100 µM for the second.

In the case of `C/C(=N/NC(N)=S)c1ccc[nH]1`, the TGI was over 100 µM.

From PubChem BioAssay (NCI)
